From the supplement of paper PMC4862054

Assays:
Experiment in all cases: normalised response (% of control), CellTiter-Glo; higher = more viable cells (100 = DMSO, 0 = benzethonium chloride kill control)
Settings in all cases: incubation time: 72 h
CAL-85-1 = system: CAL-85-1
How it was run: (§1)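 Plates were normalised with 0.1 % DMSO as 100 and a positive kill control as 0. Breast cancer cell lines in 20 µl suspension had been seeded into 384-well plates with compound at 5 concentrations in 10-fold steps over a compound-specific 10,000-fold range, incubated 72 h, and read for CellTox Green fluorescence (485/520 nm) followed by CellTiter-Glo luminescence. Each value is the normalised signal at a single concentration.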

HCC1937 = system: HCC1937
How it was run: as §1

MDA-MB-436 = system: MDA-MB-436
How it was run: as §1

Hs578T = system: Hs578T
How it was run: as §1

MDA-MB-468 = system: MDA-MB-468
How it was run: as §1

MCF-10A = system: MCF-10A
How it was run: as §1

DU-4475 = system: DU-4475
How it was run: as §1

MDA-MB-231 = system: MDA-MB-231
How it was run: as §1

CAL-120 = system: CAL-120
How it was run: as §1

HCC1599 = system: HCC1599
How it was run: as §1

CAL-51 = system: CAL-51
How it was run: as §1

HDQ-P1 = system: HDQ-P1
How it was run: as §1

BT-549 = system: BT-549
How it was run: as §1

BT-474 = system: BT-474
How it was run: as §1

HCC1143 = system: HCC1143
How it was run: as §1

MDA-MB-453 = system: MDA-MB-453
How it was run: as §1

MFM-223 = system: MFM-223
How it was run: as §1

SK-BR-3 = system: SK-BR-3
How it was run: as §1

CAL-148 = system: CAL-148
How it was run: as §1

Compound	normalised response (CAL-85-1)	normalised response (HCC1937)	normalised response (MDA-MB-436)	normalised response (Hs578T)	normalised response (MDA-MB-468)	normalised response (MCF-10A)	normalised response (DU-4475)	normalised response (MDA-MB-231)	normalised response (CAL-120)	normalised response (HCC1599)	normalised response (CAL-51)	normalised response (HDQ-P1)	normalised response (BT-549)	normalised response (BT-474)	normalised response (HCC1143)	normalised response (MDA-MB-453)	normalised response (MFM-223)	normalised response (SK-BR-3)	normalised response (CAL-148)
CN1CCC(COc2cnc(-c3cccc(Cn4nc(-c5cccc(C#N)c5)ccc4=O)c3)nc2)CC1 (0.1 nM)	92.8%	94.5%	81.1%	96.4%	96.9%	89.1%	93.1%	98.5%	96.1%	92.2%	82.4%	99.1%	95.1%	98.2%	94.6%	105%	94.2%	84.6%	103%
CN(C)C/C=C/C(=O)Nc1cc2c(Nc3ccc(F)c(Cl)c3)ncnc2cc1O[C@H]1CCOC1 [Afatinib] (0.1 nM)	116%	96.6%	85.8%	99.6%	100%	91.2%	104%	103%	93.7%	99%	75%	108%	97.3%	94.9%	93.2%	111%	96.2%	104%	103%
COc1cc(Nc2ncc3c(n2)-c2ccc(Cl)cc2C(c2c(F)cccc2OC)=NC3)ccc1C(=O)O [Alisertib] (1 nM)	91.9%	88.4%	99%	95.6%	95.9%	84%	97%	93.3%	96.7%	90.2%	116%	94.7%	95.6%	98.9%	91.6%	95.9%	92.9%	94.2%	89.3%
COc1cc(Nc2ncc3c(n2)-c2ccc(Cl)cc2C(c2c(F)cccc2OC)=NC3)ccc1C(=O)O [Alisertib] (10 nM)	94.4%	95.9%	89.5%	97%	87.7%	93%	98.2%	95.3%	96.1%	102%	86.4%	97.1%	96%	93.4%	93.9%	88.3%	88.6%	70.4%	91.9%
CN1CC[C@H](c2c(O)cc(O)c3c(=O)cc(-c4ccccc4Cl)oc23)[C@H](O)C1 [Alvocidib] (10 nM)	103%	101%	106%	102%	99.9%	110%	104%	101%	92.4%	103%	125%	99.2%	102%	98.7%	103%	112%	106%	106%	104%
Nc1nc(Cl)nc2c1ncn2[C@H]1C[C@H](O)[C@@H](CO)O1 [Cladribine] (1 nM)	102%	101%	102%	105%	102%	104%	106%	100%	97.5%	102%	94.2%	97.8%	97.2%	99.3%	104%	113%	105%		103%
Nc1ccn([C@@H]2O[C@H](CO)[C@@H](O)[C@@H]2O)c(=O)n1 [Cytarabine] (10 nM)	99%	96.5%	105%	114%	93.8%	112%	99.4%	99.2%	96.4%	90.2%	80.4%	107%	96.8%	97.6%	99.3%	109%	107%		102%
Cc1c2oc3c(C)ccc(C(=O)N[C@@H]4C(=O)N[C@H](C(C)C)C(=O)N5CCC[C@H]5C(=O)N(C)CC(=O)N(C)[C@@H](C(C)C)C(=O)O[C@@H]4C)c3nc-2c(C(=O)N[C@@H]2C(=O)N[C@H](C(C)C)C(=O)N3CCC[C@H]3C(=O)N(C)CC(=O)N(C)[C@@H](C(C)C)C(=O)O[C@@H]2C)c(N)c1=O [Dactinomycin] (1 nM)	90.8%	79.9%	87%	105%	60.3%	77.8%	97%	97.7%	90.3%	102%	99.9%	71.4%	71.9%	79.4%	80.8%	94%	105%		81.8%
COc1cccc2c1C(=O)c1c(O)c3c(c(O)c1C2=O)C[C@@](O)(C(=O)CO)C[C@@H]3O[C@H]1C[C@H](N)[C@H](O)[C@H](C)O1 [Doxorubicin] (1 nM)	103%	98.6%	107%	100%	104%	110%	108%	99.5%	93.6%	120%	107%	101%	94.2%	101%	99.1%	113%	105%		95.7%
Cc1ccc(F)c(NC(=O)Nc2ccc(-c3cccc4[nH]nc(N)c34)cc2)c1 [Linifanib] (1 nM)	103%	101%	101%	98.9%	106%	109%	111%	106%	102%	112%	100%	104%	104%	106%	110%	113%	112%		114%
